Data taken from ChEMBL document CHEMBL3259594, “Benzylpiperidine variations on histamine H3 receptor ligands for improved drug-likeness” (Bioorg Med Chem Lett, 2014).

The compounds below were run against T1, Histamine H3 receptor (Homo sapiens, UniProt Q9Y5N1) (assay: Displacement of [3H]N-alpha-methylhistamine from recombinant human histamine H3 receptor expressed in HEK293 cells after 90 mins).
T1 sequence (Q9Y5N1 whole entry): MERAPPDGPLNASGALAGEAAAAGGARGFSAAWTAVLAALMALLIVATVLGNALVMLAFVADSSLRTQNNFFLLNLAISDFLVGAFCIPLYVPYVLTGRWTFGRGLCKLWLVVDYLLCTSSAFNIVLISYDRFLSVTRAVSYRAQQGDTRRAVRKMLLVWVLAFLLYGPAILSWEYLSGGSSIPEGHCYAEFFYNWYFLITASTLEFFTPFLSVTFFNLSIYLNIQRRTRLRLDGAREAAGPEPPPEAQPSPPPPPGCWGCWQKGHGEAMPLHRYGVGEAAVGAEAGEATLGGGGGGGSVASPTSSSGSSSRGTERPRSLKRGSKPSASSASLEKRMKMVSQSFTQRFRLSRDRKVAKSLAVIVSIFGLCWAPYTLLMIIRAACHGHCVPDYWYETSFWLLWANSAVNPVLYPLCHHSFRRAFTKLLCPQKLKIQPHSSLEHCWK
Type: cell-based
`CCOC(=O)C1CCN(Cc2ccc(OCCCN3CCCCC3)cc2)CC1` gave a Ki of 0.229 nM. `OCC1CCN(Cc2ccc(OCCCN3CCCCC3)cc2)CC1` was tested, and the Ki was 0.676 nM. For `Cc1nnc(C2CCN(Cc3ccc(OCCCN4CCCCC4)cc3)CC2)o1`, the Ki was 0.479 nM. `O=C(O)C1CCN(Cc2ccc(OCCCN3CCCCC3)cc2)CC1` was tested, and the Ki was 12.9 nM. Work on `OC1CCN(Cc2ccc(OCCCN3CCCCC3)cc2)CC1` yielded a Ki of 0.589 nM.

The compounds below were run against Histamine H3 receptor (Rattus norvegicus, UniProt Q9QYN8) (assay: Binding affinity to rat histamine H3 receptor).
Sequence of Histamine H3 receptor (Rattus norvegicus, UniProt Q9QYN8) (Q9QYN8 whole entry): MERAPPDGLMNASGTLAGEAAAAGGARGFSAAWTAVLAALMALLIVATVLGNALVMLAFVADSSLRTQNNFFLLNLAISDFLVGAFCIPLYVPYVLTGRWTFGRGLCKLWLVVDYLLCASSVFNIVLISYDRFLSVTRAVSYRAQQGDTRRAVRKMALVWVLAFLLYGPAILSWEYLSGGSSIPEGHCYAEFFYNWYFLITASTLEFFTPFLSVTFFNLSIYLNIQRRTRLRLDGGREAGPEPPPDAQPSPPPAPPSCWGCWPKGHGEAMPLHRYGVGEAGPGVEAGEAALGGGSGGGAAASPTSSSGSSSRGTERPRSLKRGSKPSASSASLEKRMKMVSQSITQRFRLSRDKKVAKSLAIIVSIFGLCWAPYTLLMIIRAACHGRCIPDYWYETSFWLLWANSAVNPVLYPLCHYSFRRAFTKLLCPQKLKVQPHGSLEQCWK
`c1cc(OCCCN2CCCCC2)ccc1CN1CCCCC1` [JNJ-5207852] was tested, and the Ki was 0.58 nM.

What follows are compounds tested against T1, Histamine H3 receptor (assay: Displacement of [125I]Iodoproxyfan from recombinant human histamine H3 receptor expressed in HEK293 cells after 90 mins).
Type: cell-based
In the case of `O=C1CCN(Cc2ccc(OCCCN3CCCCC3)cc2)CC1`, the Ki is reported as 2.51 nM. `C#CCNC(=O)C1CCN(Cc2ccc(OCCCN3CCCCC3)cc2)CC1` gave a Ki of 11 nM. `CCNC(=O)C1CCN(Cc2ccc(OCCCN3CCCCC3)cc2)CC1` gave a Ki of 2.95 nM. `c1cc(OCCCN2CCCCC2)ccc1CN1CCC2(CC1)OCCO2` gave a Ki of 2.04 nM. With `c1ccc2c(c1)CCN(Cc1ccc(OCCCN3CCCCC3)cc1)C2` the Ki was 2.95 nM.
